Here are results for 59 compounds from patent US8338465B2, “Cyclic carboxylic acid rhodanine derivatives for the treatment and prevention of tuberculosis” (priority 2006, dated 2012).

For the first assay, the target named is T1, dihydrolipoamide acyltransferase (DlaT) (Mycobacterium tuberculosis, UniProt P9WIS7).
T1 sequence (P9WIS7 1-553): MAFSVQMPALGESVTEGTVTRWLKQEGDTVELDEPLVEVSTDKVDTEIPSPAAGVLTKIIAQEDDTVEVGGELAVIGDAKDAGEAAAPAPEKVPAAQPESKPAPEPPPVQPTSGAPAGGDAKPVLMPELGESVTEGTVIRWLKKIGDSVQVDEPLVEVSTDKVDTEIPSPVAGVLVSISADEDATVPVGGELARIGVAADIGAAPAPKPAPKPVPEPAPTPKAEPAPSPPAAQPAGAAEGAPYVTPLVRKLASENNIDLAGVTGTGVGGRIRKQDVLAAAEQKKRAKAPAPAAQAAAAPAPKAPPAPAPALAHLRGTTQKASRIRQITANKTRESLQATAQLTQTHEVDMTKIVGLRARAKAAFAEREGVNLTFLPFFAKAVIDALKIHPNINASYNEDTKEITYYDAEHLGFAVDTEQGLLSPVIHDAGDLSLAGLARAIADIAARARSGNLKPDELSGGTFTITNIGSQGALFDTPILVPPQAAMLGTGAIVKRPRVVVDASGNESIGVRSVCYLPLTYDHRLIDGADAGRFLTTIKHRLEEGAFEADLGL
Description: DlaT inhibition (Dlat IC50); DTNB peroxidase assay with Lpd, DlaT and AhpD. Format: biochemical. The settings on record: Dlat IC50 category.
Regarding `CC(C)(C)c1ccc(-c2ccc(C=C3SC(=S)N(Nc4ccccc4C(=O)O)C3=O)o2)cc1` (single isomer, unassigned) [Compound D2, 2-{5-[1-[5-(4-tert-butyl-phenyl)-furan-2-yl]-meth-(E)-ylidene]-4-oxo-2-thioxo-thiazolidin-3-ylamino}-benzoic acid], the IC50 was below 10 µM. Turning to `O=C(O)c1ccccc1NN1C(=O)/C(=C\c2ccc(-c3ccc(N4CCOCC4)cc3)o2)SC1=S` (single isomer, unassigned) [Compound D6, 2-{5-[1-[5-(4-morpholin-4-yl-phenyl)-furan-2-yl]-meth-(E)-ylidene]-4-oxo-2-thioxo-thiazolidin-3-ylamino}-benzoic acid], the IC50 fell in the range of 11 to 40 µM.

The same assay, now with this note: Table 1, Compounds A1 to A294; read-out: Dlat IC50 category.
As to `O=C(O)c1cccc(N2C(=O)C(=Cc3ccc(-c4cccc(C(F)(F)F)c4)o3)SC2=S)c1` [Compound A2], the IC50 was below 10 µM. On the same count and under the same terms, next, `O=C(O)c1cccc(N2C(=O)C(=Cc3ccc(-c4ccc(Cc5ccccc5)cc4)o3)SC2=S)c1` [Compound A3]: below 10 µM; `O=C(O)c1cccc(N2C(=O)C(=Cc3ccc(-c4cccc(Cl)c4)o3)SC2=S)c1` [Compound A4]: 11 to 40 µM; `O=C(O)c1cccc(N2C(=O)C(=Cc3cccc(-c4ccccc4Cl)n3)SC2=S)c1` [Compound A5]: above 41 µM. Consider `NS(=O)(=O)c1ccc(N2C(=O)C(=Cc3ccc(-c4ccccc4Cl)o3)SC2=S)cc1` [Compound A6], for which the IC50 was in the range of 11 to 40 µM. As for `O=C(O)c1cccc(N2C(=O)C(=Cc3ccc(-c4ccc(Cl)c(Cl)c4)o3)SC2=S)c1` [Compound A7], the IC50 is below 10 µM. On the same count and under the same terms, then `O=C(O)c1ccc(N2C(=O)C(=Cc3ccc(-c4ccc(Cl)c(Cl)c4)o3)SC2=S)cc1` [Compound A8], with below 10 µM. Still for that read-out and setting: then `NS(=O)(=O)c1ccc(N2C(=O)C(=Cc3ccc(-c4ccc(Cl)c(Cl)c4)o3)SC2=S)cc1` [Compound A9], with 11 to 40 µM; and `O=C(O)c1ccc(N2C(=O)C(=Cc3ccc(-c4cccc(C(F)(F)F)c4)o3)SC2=S)cc1` [Compound A10], with 11 to 40 µM.

As to `O=C(O)c1ccc(N2C(=O)C(=Cc3ccc(-c4ccc(Cc5ccccc5)cc4)o3)SC2=S)cc1` [Compound A11], the IC50 is 11 to 40 µM. For the compound `NS(=O)(=O)c1ccc(N2C(=O)C(=Cc3ccc(-c4ccc(Cc5ccccc5)cc4)o3)SC2=S)cc1` [Compound A12], the IC50 was 11 to 40 µM. The same measure, in the same setting: then `O=C(O)c1cccc(N2C(=O)C(=Cc3ccc(-c4ccc(Oc5ccccc5)cc4)o3)SC2=S)c1` [Compound A13], with below 10 µM; and `O=C(O)c1ccc(N2C(=O)C(=Cc3ccc(-c4ccc(Oc5ccccc5)cc4)o3)SC2=S)cc1` [Compound A14], with 11 to 40 µM; and `NS(=O)(=O)c1ccc(N2C(=O)C(=Cc3ccc(-c4ccc(Oc5ccccc5)cc4)o3)SC2=S)cc1` [Compound A15], with above 41 µM. Same read-out and setting: then `O=C(O)c1ccc(N2C(=O)C(=Cc3ccc(-c4ccccc4Cl)o3)SC2=S)cc1` [Compound A16], with above 41 µM; and `NS(=O)(=O)c1ccc(N2C(=O)C(=Cc3ccc(-c4ccc(Cl)cc4)o3)SC2=S)cc1` [Compound A17], with 11 to 40 µM; and `NS(=O)(=O)c1ccc(N2C(=O)C(=Cc3ccc(-c4cccc(C(F)(F)F)c4)o3)SC2=S)cc1` [Compound A18], with 11 to 40 µM. For `NS(=O)(=O)c1ccc(N2C(=O)C(=Cc3ccc(-c4cccc(Cl)c4)o3)SC2=S)cc1` [Compound A19], the IC50 lay within 11 to 40 µM. Consider `O=C(O)c1ccc(N2C(=O)C(=Cc3ccc(-c4ccc(Cl)cc4)o3)SC2=S)cc1` [Compound A20], for which the IC50 was below 10 µM. Same read-out and setting: then `O=C(O)c1cccc(N2C(=O)C(=Cc3ccc(-c4ccc(Cl)cc4)o3)SC2=S)c1` [Compound A21], with below 10 µM. Take `O=C1C(=Cc2ccc(-c3ccccc3Cl)o2)SC(=S)N1c1ccc(O)cc1` [Compound A22]: the IC50 was below 10 µM. On the same count and under the same terms, then `O=C1C(=Cc2ccc(-c3cccc(C(F)(F)F)c3)o2)SC(=S)N1c1ccc(O)cc1` [Compound A23], with below 10 µM; and `O=C1C(=Cc2ccc(-c3ccc(Cl)cc3)o2)SC(=S)N1c1ccc(O)cc1` [Compound A24], with below 10 µM; and `NS(=O)(=O)c1cccc(N2C(=O)C(=Cc3ccc(-c4ccccc4Cl)o3)SC2=S)c1` [Compound A25], with 11 to 40 µM.

In the case of `NS(=O)(=O)c1cccc(N2C(=O)C(=Cc3ccc(-c4cccc(C(F)(F)F)c4)o3)SC2=S)c1` [Compound A26], the IC50 lay within 11 to 40 µM.

For `NS(=O)(=O)c1cccc(N2C(=O)C(=Cc3ccc(-c4ccc(Cl)cc4)o3)SC2=S)c1` [Compound A27], the concentration for half-maximal inhibition (IC50) is below 10 µM. On to `O=C(O)c1cccc(N2C(=O)C(=Cc3cc(-c4cccc(C(F)(F)F)c4)co3)SC2=S)c1` [Compound A28], for which the IC50 is below 10 µM. In the case of `O=C(O)c1ccc(N2C(=O)C(=Cc3cc(-c4cccc(C(F)(F)F)c4)co3)SC2=S)cc1` [Compound A29], the IC50 was in the range of 11 to 40 µM. On the same count and under the same terms, next, `CC(=O)NS(=O)(=O)c1ccc(N2C(=O)C(=Cc3ccc(-c4ccc(Cl)c(Cl)c4)o3)SC2=S)cc1` [Compound A30]: below 10 µM; `CC(=O)NS(=O)(=O)c1ccc(N2C(=O)C(=Cc3ccc(-c4cccc(C(F)(F)F)c4)o3)SC2=S)cc1` [Compound A31]: below 10 µM; `O=C(O)c1cc(N2C(=O)C(=Cc3ccc(-c4cccc(C(F)(F)F)c4)o3)SC2=S)ccc1O` [Compound A32]: below 10 µM. Still for that read-out and setting: next, `O=C(O)c1cc(N2C(=O)C(=Cc3ccc(-c4ccccc4Cl)o3)SC2=S)ccc1O` [Compound A33]: below 10 µM; `O=C(O)c1cc(N2C(=O)C(=Cc3ccc(-c4ccc(Cl)cc4)o3)SC2=S)ccc1O` [Compound A34]: below 10 µM.

`O=C(O)c1cccc(N2C(=O)C(=Cc3ccc(-c4ccc(Cl)cc4Cl)o3)SC2=S)c1` [Compound A35]: the IC50 is 11 to 40 µM.

For `O=C(O)c1cccc(N2C(=O)C(=Cc3ccc(-c4cc(Cl)ccc4Cl)o3)SC2=S)c1` [Compound A36], the IC50 was below 10 µM.

For the compound `CC(=O)NS(=O)(=O)c1cccc(N2C(=O)C(=Cc3ccc(-c4ccccc4Cl)o3)SC2=S)c1` [Compound A37], the IC50 lay within 11 to 40 µM.

On to `CC(=O)NS(=O)(=O)c1cccc(N2C(=O)C(=Cc3ccc(-c4cccc(C(F)(F)F)c4)o3)SC2=S)c1` [Compound A38], for which the IC50 was below 10 µM. For the compound `O=C(O)c1cccc(N2C(=O)C(=Cc3ccc(-c4c(Cl)cccc4Cl)o3)SC2=S)c1` [Compound A39], the IC50 is 11 to 40 µM.

On to `O=C(O)c1cc(N2C(=O)C(=Cc3ccc(-c4ccc(Cl)cc4Cl)o3)SC2=S)ccc1O` [Compound A40], for which the IC50 was 11 to 40 µM. Take `O=C(O)c1cc(N2C(=O)C(=Cc3ccc(-c4cc(Cl)ccc4Cl)o3)SC2=S)ccc1O` [Compound A41]: the IC50 fell in the range of 11 to 40 µM. `O=C(O)c1cc(N2C(=O)C(=Cc3ccc(-c4c(Cl)cccc4Cl)o3)SC2=S)ccc1O` [Compound A42]: the IC50 fell in the range of 11 to 40 µM.

Consider `O=C(O)c1cccc(N2C(=O)C(=Cc3ccc(-c4cc(C(F)(F)F)ccc4Cl)o3)SC2=S)c1` [Compound A44], for which the IC50 was below 10 µM. On to `O=C(O)COc1ccc(N2C(=O)C(=Cc3ccc(-c4ccc(Cl)cc4)o3)SC2=S)cc1` [Compound A45], for which the IC50 was 11 to 40 µM.

With `CC(C)c1ccc(-c2ccc(C=C3SC(=S)N(c4cccc(C(=O)O)c4)C3=O)o2)cc1` [Compound A46], the IC50 was below 10 µM. As to `CC(C)c1ccc(-c2ccc(C=C3SC(=S)N(c4ccc(O)c(C(=O)O)c4)C3=O)o2)cc1` [Compound A47], the IC50 was below 10 µM.

As for `O=C(O)c1cccc(N2C(=O)C(=Cc3ccc(-c4ccc(C(=O)c5ccccc5)cc4)o3)SC2=S)c1` [Compound A48], the IC50 is below 10 µM. Turning to `O=C1C(=Cc2ccc(-c3ccccc3Cl)o2)SC(=S)N1c1cccc(O)c1` [Compound A49], the IC50 was in the range of 11 to 40 µM. On the same count and under the same terms, then `O=C1C(=Cc2ccc(-c3cccc(C(F)(F)F)c3)o2)SC(=S)N1c1cccc(O)c1` [Compound A50], with 11 to 40 µM; and `O=C1C(=Cc2ccc(-c3ccc(Cl)cc3)o2)SC(=S)N1c1cccc(O)c1` [Compound A51], with 11 to 40 µM. Same read-out and setting: then `CC(C)c1ccc(-c2ccc(C=C3SC(=S)N(c4cccc(O)c4)C3=O)o2)cc1` [Compound A52], with 11 to 40 µM; and `O=C(O)c1cccc(N2C(=O)C(=Cc3ccc(-c4ccc(CSc5ccccc5)cc4)o3)SC2=S)c1` [Compound A53], with 11 to 40 µM. For the compound `CC(C)c1cccc(-c2ccc(C=C3SC(=S)N(c4cccc(C(=O)O)c4)C3=O)o2)c1` [Compound A54], the IC50 was below 10 µM. In the case of `CC(C)c1cccc(-c2ccc(C=C3SC(=S)N(c4cccc(O)c4)C3=O)o2)c1` [Compound A55], the IC50 lay within 11 to 40 µM. As for `O=C(O)c1cccc(N2C(=O)C(=Cc3ccc(-c4ccc(C5CCCCC5)cc4)o3)SC2=S)c1` [Compound A56], the IC50 is below 10 µM. Still for that read-out and setting: then `O=C(O)c1cc(N2C(=O)C(=Cc3ccc(-c4ccc(C5CCCCC5)cc4)o3)SC2=S)ccc1O` [Compound A57], with below 10 µM; and `CC(C)(C)c1ccc(-c2ccc(C=C3SC(=S)N(c4cccc(C(=O)O)c4)C3=O)o2)cc1` [Compound A58], with below 10 µM.

The assay is the same for the next values; noted with them: read-out: Dlat IC50 category.
On to “2-{5-[2-(2-Chloro-benzyloxy)-benzylidene]-4-oxo-2-thioxo-thiazolidin-3-ylamino}-benzoic acid [Compound D32]”, for which the IC50 is below 10 µM.
